{"source": "ChEMBL document CHEMBL1148249", "about": "“Design and synthesis of bridged gamma-lactams as analogues of beta-lactam antibiotics” (Bioorg Med Chem Lett, 2004)", "key": {"Staphylococcus aureus [1]": {"system": "Staphylococcus aureus", "test": "Minimum inhibitory concentration against Staphylococcus aureus; No activity", "type": "functional, organism-based"}, "[2]": {"test": "Inhibition of hydrolysis of nitrocefin after 5 min pre-incubation with TEM-1 beta-lactamase (class 1)"}, "[3]": {"test": "Antibacterial activity expressed as binding to PBP 1a of Pseudomonas aeruginosa"}, "[4]": {"test": "Antibacterial activity expressed as binding to PBP 1b of Pseudomonas aeruginosa"}, "[5]": {"test": "Antibacterial activity expressed as binding to PBP 2 of Pseudomonas aeruginosa"}, "[6]": {"test": "Antibacterial activity expressed as binding to PBP 4 of Pseudomonas aeruginosa"}, "[7]": {"test": "Antibacterial activity expressed as binding to PBP 5 of Pseudomonas aeruginosa"}, "[8]": {"test": "Time dependent inhibition of hydrolysis of nitrocefin after 5 min pre-incubation with TEM-1 beta-lactamase (class 1)"}, "[9]": {"test": "Half life at a pH of 9 and temperature 37 degree", "type": "ADME", "settings": "pH 9"}, "Enterobacter cloacae": {"system": "Enterobacter cloacae", "test": "Minimum inhibitory concentration against Enterobacter cloacae; 40-80 ug/mL", "type": "functional"}, "[10]": {"test": "Antibacterial activity expressed as binding to PBP 3 of Pseudomonas aeruginosa"}, "Pseudomonas aeruginosa": {"system": "Pseudomonas aeruginosa", "test": "Minimum inhibitory concentration against Pseudomonas aeruginosa; 40-80 ug/mL", "type": "functional"}, "Serratia marcescens": {"system": "Serratia marcescens", "test": "Minimum inhibitory concentration against Serratia marcescens; 40-80 ug/mL", "type": "functional"}, "Staphylococcus aureus [11]": {"system": "Staphylococcus aureus", "test": "Minimum inhibitory concentration against Staphylococcus aureus;", "type": "functional"}}, "note": "Calls of active or inactive are those of the source. The rule behind the calls is not given here.", "data": [{"smiles": "COC1=CC2CC(=O)N(C2)C1C(=O)OCc1ccc([N+](=O)[O-])cc1", "note": "(stereo unspecified)", "values": [{"measurement": "MIC", "setting": "Staphylococcus aureus [1]", "value": "inactive"}, {"measurement": "IC50", "setting": "[2]", "value": 45, "unit": "µM"}]}, {"smiles": "CC(O)[C@H]1C(=O)N2C(C(=O)O)=C(SCCNC=N)C[C@H]12", "note": "(single isomer, unassigned) [IMIPENEM ANHYDROUS]", "values": [{"measurement": "IC50", "setting": "[3]", "value": 0.3, "unit": "µM"}, {"measurement": "IC50", "setting": "[4]", "value": 0.6, "unit": "µM"}, {"measurement": "IC50", "setting": "[5]", "value": "< 0.6", "unit": "µM"}, {"measurement": "IC50", "setting": "[6]", "value": "< 0.1", "unit": "µM"}, {"measurement": "IC50", "setting": "[7]", "value": 2.3, "unit": "µM"}]}, {"smiles": "O=C(O)[C@H]1/C(=C/CO)O[C@@H]2CC(=O)N21", "note": "[CLAVULANIC ACID]", "values": [{"measurement": "IC50", "setting": "[8]", "value": 0.065, "unit": "µM"}, {"measurement": "half-life", "setting": "[9]", "value": 120, "unit": "min"}]}, {"smiles": "COC1=C(C(=O)OCc2ccc([N+](=O)[O-])cc2)N2C[C@@H](CC2=O)C1", "values": [{"measurement": "MIC", "setting": "Staphylococcus aureus [1]", "value": "inactive"}, {"measurement": "IC50", "setting": "[2]", "value": 54, "unit": "µM"}, {"measurement": "half-life", "setting": "[9]", "value": 6, "unit": "min"}]}, {"smiles": "CC[C@@H]1C(=O)N2C[C@@H]1C=C(OC)C2C(=O)OCc1ccc([N+](=O)[O-])cc1", "note": "(stereo partly specified)", "values": [{"measurement": "MIC", "setting": "Staphylococcus aureus [1]", "value": "inactive"}, {"measurement": "IC50", "setting": "[8]", "value": 420, "unit": "µM"}, {"measurement": "half-life", "setting": "[9]", "value": 55, "unit": "min"}]}, {"smiles": "CC[C@@H]1C(=O)N2C[C@@H]1CC(OC)=C2C(=O)O", "values": [{"measurement": "MIC", "setting": "Enterobacter cloacae", "value": 80, "unit": "µg/mL"}, {"measurement": "IC50", "setting": "[3]", "value": "> 50", "unit": "µM"}, {"measurement": "IC50", "setting": "[4]", "value": "> 50", "unit": "µM"}, {"measurement": "IC50", "setting": "[5]", "value": 50, "unit": "µM"}, {"measurement": "IC50", "setting": "[10]", "value": 5, "unit": "µM"}, {"measurement": "IC50", "setting": "[6]", "value": 5, "unit": "µM"}, {"measurement": "IC50", "setting": "[7]", "value": 50, "unit": "µM"}, {"measurement": "MIC", "setting": "Pseudomonas aeruginosa", "value": 80, "unit": "µg/mL"}, {"measurement": "MIC", "setting": "Serratia marcescens", "value": 80, "unit": "µg/mL"}, {"measurement": "MIC", "setting": "Staphylococcus aureus [1]", "value": "inactive"}, {"measurement": "IC50", "setting": "[8]", "value": 700, "unit": "µM"}, {"measurement": "half-life", "setting": "[9]", "value": 25, "unit": "min"}]}, {"smiles": "CC[C@@H]1C(=O)N2C[C@@H]1CC(OC)=C2C(=O)OCc1ccc([N+](=O)[O-])cc1", "values": [{"measurement": "MIC", "setting": "Staphylococcus aureus [1]", "value": "inactive"}, {"measurement": "IC50", "setting": "[2]", "value": "> 1000", "unit": "µM"}, {"measurement": "half-life", "setting": "[9]", "value": 42, "unit": "min"}]}, {"smiles": "COC1=C[C@@H]2CC(=O)N(C2)C1C(=O)O", "note": "(stereo partly specified)", "values": [{"measurement": "MIC", "setting": "Enterobacter cloacae", "value": 80, "unit": "µg/mL"}, {"measurement": "MIC", "setting": "Pseudomonas aeruginosa", "value": 80, "unit": "µg/mL"}, {"measurement": "MIC", "setting": "Serratia marcescens", "value": 80, "unit": "µg/mL"}, {"measurement": "MIC", "setting": "Staphylococcus aureus [11]", "value": 80, "unit": "µg/mL"}, {"measurement": "IC50", "setting": "[2]", "value": 280, "unit": "µM"}, {"measurement": "half-life", "setting": "[9]", "value": 14, "unit": "min"}]}]}
